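Five concentrations, 48 hours, 96-well plates. The concentration for full growth arrest is given as TGI.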
Key:
Test in all cases: NCI tumour cell line growth inhibition, 48 h
OVCAR-4 ovarian = system: OVCAR-4 ovarian
UACC-257 melanoma = system: UACC-257 melanoma
OVCAR-8 ovarian = system: OVCAR-8 ovarian
SK-MEL-5 melanoma = system: SK-MEL-5 melanoma
RPMI-8226 leukemia = system: RPMI-8226 leukemia
HL-60(TB) leukemia = system: HL-60(TB) leukemia
UO-31 renal = system: UO-31 renal
M19-MEL melanoma = system: M19-MEL melanoma
K-562 leukemia = system: K-562 leukemia
786-0 renal = system: 786-0 renal
HOP-18 NSCLC = system: HOP-18 NSCLC
TK-10 renal = system: TK-10 renal
HCT-116 colon = system: HCT-116 colon
HCT-15 colon = system: HCT-15 colon
HT29 colon = system: HT29 colon
DMS 273 small cell lung = system: DMS 273 small cell lung
A498 renal = system: A498 renal
SK-MEL-2 melanoma = system: SK-MEL-2 melanoma
SF-268 CNS = system: SF-268 CNS
KM12 colon = system: KM12 colon
UACC-62 melanoma = system: UACC-62 melanoma
SNB-75 CNS = system: SNB-75 CNS
A549 NSCLC = system: A549 NSCLC
MOLT-4 leukemia = system: MOLT-4 leukemia
OVCAR-5 ovarian = system: OVCAR-5 ovarian
DLD-1 colon = system: DLD-1 colon
NCI-H226 lung = system: NCI-H226 lung
SF-295 CNS = system: SF-295 CNS
DMS 114 small cell lung = system: DMS 114 small cell lung
NCI-H23 lung = system: NCI-H23 lung
HOP-92 NSCLC = system: HOP-92 NSCLC
MALME-3M melanoma = system: MALME-3M melanoma
U251 CNS = system: U251 CNS
M14 melanoma = system: M14 melanoma
RXF 393 renal = system: RXF 393 renal
LXFL 529 NSCLC = system: LXFL 529 NSCLC
NCI-H460 lung = system: NCI-H460 lung
SR leukemia = system: SR leukemia
IGROV1 ovarian = system: IGROV1 ovarian
CCRF-CEM leukemia = system: CCRF-CEM leukemia
COLO 205 colon = system: COLO 205 colon
CAKI-1 renal = system: CAKI-1 renal
SF-539 CNS = system: SF-539 CNS
NCI-H522 lung = system: NCI-H522 lung
HOP-62 NSCLC = system: HOP-62 NSCLC
SK-OV-3 ovarian = system: SK-OV-3 ovarian
SN12C renal = system: SN12C renal
SW-620 colon = system: SW-620 colon
ACHN renal = system: ACHN renal
LOX IMVI melanoma = system: LOX IMVI melanoma
SK-MEL-28 melanoma = system: SK-MEL-28 melanoma
EKVX NSCLC = system: EKVX NSCLC
OVCAR-3 ovarian = system: OVCAR-3 ovarian
XF 498 CNS = system: XF 498 CNS
SNB-78 CNS = system: SNB-78 CNS
HCC-2998 colon = system: HCC-2998 colon
SNB-19 CNS = system: SNB-19 CNS
KM20L2 colon = system: KM20L2 colon

COc1ccc(C2S/C(=C\c3cccc(O)c3)C(=O)N2NC(=O)Cc2ccccc2)cc1 (stereo not given)
TGI (OVCAR-4 ovarian): > 100 µM
TGI (UACC-257 melanoma): > 100 µM
TGI (OVCAR-8 ovarian): > 100 µM
TGI (SK-MEL-5 melanoma): > 100 µM
TGI (RPMI-8226 leukemia): > 100 µM
TGI (HL-60(TB) leukemia): > 100 µM
TGI (UO-31 renal): > 100 µM
TGI (M19-MEL melanoma): > 100 µM
TGI (K-562 leukemia): > 100 µM
TGI (786-0 renal): > 100 µM
TGI (HOP-18 NSCLC): > 100 µM
TGI (TK-10 renal): > 100 µM
TGI (HCT-116 colon): > 100 µM
TGI (HCT-15 colon): > 100 µM
TGI (HT29 colon): > 100 µM
TGI (DMS 273 small cell lung): > 100 µM
TGI (A498 renal): > 100 µM
TGI (SK-MEL-2 melanoma): > 100 µM
TGI (SF-268 CNS): > 100 µM
TGI (KM12 colon): > 100 µM
TGI (UACC-62 melanoma): > 100 µM
TGI (SNB-75 CNS): > 100 µM
TGI (A549 NSCLC): > 100 µM
TGI (MOLT-4 leukemia): > 100 µM
TGI (OVCAR-5 ovarian): > 100 µM
TGI (DLD-1 colon): > 100 µM
TGI (NCI-H226 lung): > 100 µM
TGI (SF-295 CNS): > 100 µM
TGI (DMS 114 small cell lung): > 100 µM
TGI (NCI-H23 lung): > 100 µM
TGI (HOP-92 NSCLC): > 100 µM
TGI (MALME-3M melanoma): > 100 µM
TGI (U251 CNS): > 100 µM
TGI (M14 melanoma): > 100 µM
TGI (RXF 393 renal): > 100 µM
TGI (LXFL 529 NSCLC): > 100 µM
TGI (NCI-H460 lung): > 100 µM
TGI (SR leukemia): > 100 µM
TGI (IGROV1 ovarian): > 100 µM
TGI (CCRF-CEM leukemia): > 100 µM
TGI (COLO 205 colon): > 100 µM
TGI (CAKI-1 renal): > 100 µM
TGI (SF-539 CNS): > 100 µM
TGI (NCI-H522 lung): > 100 µM
TGI (HOP-62 NSCLC): > 100 µM
TGI (SK-OV-3 ovarian): > 100 µM
TGI (SN12C renal): > 100 µM
TGI (SW-620 colon): > 100 µM
TGI (ACHN renal): > 100 µM
TGI (LOX IMVI melanoma): > 100 µM

COc1cccc(/C=C2\C(=O)N(C(=O)Cc3ccccc3)N=C2C)c1
TGI (SK-MEL-28 melanoma): > 100 µM
TGI (OVCAR-4 ovarian): > 100 µM
TGI (UACC-257 melanoma): > 100 µM
TGI (EKVX NSCLC): > 100 µM
TGI (OVCAR-8 ovarian): > 100 µM
TGI (SK-MEL-5 melanoma): > 100 µM
TGI (RPMI-8226 leukemia): > 100 µM
TGI (HL-60(TB) leukemia): > 100 µM
TGI (UO-31 renal): > 100 µM
TGI (M19-MEL melanoma): > 100 µM
TGI (K-562 leukemia): > 100 µM
TGI (786-0 renal): > 100 µM
TGI (HOP-18 NSCLC): > 100 µM
TGI (TK-10 renal): > 100 µM
TGI (HCT-116 colon): > 100 µM
TGI (HCT-15 colon): > 100 µM
TGI (HT29 colon): > 100 µM
TGI (DMS 273 small cell lung): > 100 µM
TGI (SK-MEL-2 melanoma): > 100 µM
TGI (SF-268 CNS): > 100 µM
TGI (KM12 colon): > 100 µM
TGI (SNB-75 CNS): > 100 µM
TGI (A549 NSCLC): > 100 µM
TGI (OVCAR-3 ovarian): > 100 µM
TGI (MOLT-4 leukemia): > 100 µM
TGI (OVCAR-5 ovarian): > 100 µM
TGI (DLD-1 colon): > 100 µM
TGI (NCI-H226 lung): > 100 µM
TGI (SF-295 CNS): > 100 µM
TGI (DMS 114 small cell lung): > 100 µM
TGI (NCI-H23 lung): > 100 µM
TGI (MALME-3M melanoma): > 100 µM
TGI (U251 CNS): > 100 µM
TGI (M14 melanoma): > 100 µM
TGI (XF 498 CNS): > 100 µM
TGI (SR leukemia): > 100 µM
TGI (CCRF-CEM leukemia): > 100 µM
TGI (COLO 205 colon): > 100 µM
TGI (SNB-78 CNS): > 100 µM
TGI (CAKI-1 renal): > 100 µM
TGI (SF-539 CNS): > 100 µM
TGI (HCC-2998 colon): > 100 µM
TGI (NCI-H522 lung): > 100 µM
TGI (HOP-62 NSCLC): > 100 µM
TGI (SN12C renal): > 100 µM
TGI (SW-620 colon): > 100 µM
TGI (ACHN renal): > 100 µM
TGI (LOX IMVI melanoma): > 100 µM
TGI (SNB-19 CNS): > 100 µM

CCCOCN1COCN=C1NC#N
TGI (SK-MEL-28 melanoma): > 100 µM
TGI (OVCAR-4 ovarian): > 100 µM
TGI (UACC-257 melanoma): > 100 µM
TGI (EKVX NSCLC): > 100 µM
TGI (OVCAR-8 ovarian): > 100 µM
TGI (SK-MEL-5 melanoma): > 100 µM
TGI (RPMI-8226 leukemia): > 100 µM
TGI (HL-60(TB) leukemia): > 100 µM
TGI (UO-31 renal): > 100 µM
TGI (M19-MEL melanoma): 88.1 µM
TGI (K-562 leukemia): > 100 µM
TGI (786-0 renal): 45.1 µM
TGI (HOP-18 NSCLC): > 100 µM
TGI (TK-10 renal): > 100 µM
TGI (HCT-116 colon): > 100 µM
TGI (HCT-15 colon): 32.6 µM
TGI (HT29 colon): > 100 µM
TGI (DMS 273 small cell lung): 41.9 µM
TGI (A498 renal): > 100 µM
TGI (SK-MEL-2 melanoma): > 100 µM
TGI (SF-268 CNS): > 100 µM
TGI (KM12 colon): > 100 µM
TGI (UACC-62 melanoma): > 100 µM
TGI (SNB-75 CNS): > 100 µM
TGI (A549 NSCLC): > 100 µM
TGI (OVCAR-3 ovarian): > 100 µM
TGI (MOLT-4 leukemia): > 100 µM
TGI (OVCAR-5 ovarian): > 100 µM
TGI (DLD-1 colon): > 100 µM
TGI (NCI-H226 lung): > 100 µM
TGI (SF-295 CNS): > 100 µM
TGI (DMS 114 small cell lung): 39.7 µM
TGI (NCI-H23 lung): > 100 µM
TGI (HOP-92 NSCLC): > 100 µM
TGI (MALME-3M melanoma): > 100 µM
TGI (U251 CNS): 43.8 µM
TGI (M14 melanoma): > 100 µM
TGI (RXF 393 renal): 29.8 µM
TGI (LXFL 529 NSCLC): > 100 µM
TGI (NCI-H460 lung): > 100 µM
TGI (XF 498 CNS): > 100 µM
TGI (IGROV1 ovarian): > 100 µM
TGI (COLO 205 colon): 32.6 µM
TGI (SNB-78 CNS): > 100 µM
TGI (CAKI-1 renal): > 100 µM
TGI (SF-539 CNS): > 100 µM
TGI (KM20L2 colon): > 100 µM
TGI (HCC-2998 colon): > 100 µM
TGI (NCI-H522 lung): > 100 µM
TGI (HOP-62 NSCLC): > 100 µM
TGI (SK-OV-3 ovarian): > 100 µM
TGI (SN12C renal): > 100 µM
TGI (SW-620 colon): 32.3 µM
TGI (ACHN renal): > 100 µM
TGI (LOX IMVI melanoma): 47.5 µM
TGI (SNB-19 CNS): > 100 µM

C/C(CN1C(=O)c2ccccc2C1=O)=N\NS(=O)(=O)c1ccc(F)cc1
TGI (SK-MEL-28 melanoma): > 100 µM
TGI (OVCAR-4 ovarian): > 100 µM
TGI (UACC-257 melanoma): > 100 µM
TGI (EKVX NSCLC): > 100 µM
TGI (OVCAR-8 ovarian): > 100 µM
TGI (SK-MEL-5 melanoma): > 100 µM
TGI (RPMI-8226 leukemia): > 100 µM
TGI (HL-60(TB) leukemia): > 100 µM
TGI (UO-31 renal): > 100 µM
TGI (K-562 leukemia): > 100 µM
TGI (786-0 renal): > 100 µM
TGI (HOP-18 NSCLC): > 100 µM
TGI (TK-10 renal): > 100 µM
TGI (HCT-116 colon): > 100 µM
TGI (HCT-15 colon): > 100 µM
TGI (HT29 colon): > 100 µM
TGI (DMS 273 small cell lung): > 100 µM
TGI (A498 renal): > 100 µM
TGI (SK-MEL-2 melanoma): > 100 µM
TGI (SF-268 CNS): > 100 µM
TGI (KM12 colon): > 100 µM
TGI (UACC-62 melanoma): > 100 µM
TGI (SNB-75 CNS): > 100 µM
TGI (A549 NSCLC): > 100 µM
TGI (OVCAR-3 ovarian): > 100 µM
TGI (MOLT-4 leukemia): > 100 µM
TGI (OVCAR-5 ovarian): > 100 µM
TGI (DLD-1 colon): > 100 µM
TGI (NCI-H226 lung): > 100 µM
TGI (SF-295 CNS): > 100 µM
TGI (DMS 114 small cell lung): > 100 µM
TGI (NCI-H23 lung): > 100 µM
TGI (MALME-3M melanoma): > 100 µM
TGI (U251 CNS): > 100 µM
TGI (M14 melanoma): > 100 µM
TGI (LXFL 529 NSCLC): > 100 µM
TGI (NCI-H460 lung): > 100 µM
TGI (XF 498 CNS): > 100 µM
TGI (SR leukemia): > 100 µM
TGI (IGROV1 ovarian): > 100 µM
TGI (CCRF-CEM leukemia): > 100 µM
TGI (COLO 205 colon): > 100 µM
TGI (SNB-78 CNS): > 100 µM
TGI (CAKI-1 renal): > 100 µM
TGI (SF-539 CNS): > 100 µM
TGI (KM20L2 colon): > 100 µM
TGI (HCC-2998 colon): > 100 µM
TGI (NCI-H522 lung): > 100 µM
TGI (HOP-62 NSCLC): > 100 µM
TGI (SK-OV-3 ovarian): > 100 µM
TGI (SN12C renal): > 100 µM
TGI (SW-620 colon): > 100 µM
TGI (ACHN renal): > 100 µM
TGI (LOX IMVI melanoma): > 100 µM
TGI (SNB-19 CNS): > 100 µM
